Data: patent US20210290651A1, “METHODS OF TREATING VIRAL INFECTIONS USING INHIBITORS OF NUCLEOTIDE SYNTHESIS PATHWAYS” (priority 2020, published 2021)
“And” between values parts separate entries of the source, which are not always exact repeats. Equal values may be shown once. Read-outs that look alike come from different tables or passages of the source.

Legend:
[1] = patient with papillary carcinoma of the thyroid; cited from earlier work
[2] = daily times 5 schedule; cited from earlier work
[3] = system: Vero E6 cells
[4] = system: SARS-CoV-2; assay: microbe, parasite or virus in culture; type: cell-based
[5] = system: advanced lung cancer; conditions: weekly rapid iv injection, previously treated patients with advanced lung cancer; cited from earlier work
[6] = system: OMP decarboxylase; conditions: for PYR concentration: 1 μM; for OMP concentration / Orotate concentration / UMP concentration: PYR 1 μM
[7] = system: HRV1A strain 2060; assay: Rhinovirus antiviral assay, inhibition of virus-induced cell killing (XTT) in H1-HeLa cells; type: cell-based; conditions: Enterovirus
[8] = in vitro; conditions: monkey
[9] = remdesivir dose response, brequinar 0.000 μM
[10] = remdesivir dose response, brequinar 0.078 μM
[11] = remdesivir dose response, brequinar 0.156 μM
[12] = remdesivir dose response, brequinar 0.313 μM
[13] = remdesivir dose response, brequinar 1.250 μM

Cc1c(-c2ccc(-c3ccccc3F)cc2)nc2ccc(F)cc2c1C(=O)O [Brequinar sodium]
tumor response [1]: One mixed response
maximum tolerated dose [2]: 300 mg/m^2
recommended phase II dose [2]: 250 mg/m^2

CC(C)C[C@H](NC(=O)OCc1ccccc1)C(=O)N[C@@H](CC1CCNC1=O)C(O)S(=O)(=O)[O-].[Na+] (stereo partly drawn) [GC-376]
CC50 [3]: > 50000 nM
E(Max) [4]: 100
EC90 [4]: 5730 nM
EC50 ([4]; read-out: EC50: Concentration inhibiting 50% of the maximum CPE-protection effect of the compound (Emax)): 2040 nM
IC50 ([4]; read-out: IC50: Concentration inhibiting 50% of the virus-induced CPE compared to the no infection control): 2040 nM

NC(=O)c1[nH]nc([C@@H]2O[C@H](CO)[C@@H](O)[C@H]2O)c1O [PYR, 5-[(2S,3R,4S,5R)-3,4-dihydroxy-5-(hydroxymethyl)oxolan-2-yl]-4-hydroxy-1H-pyrazole-3-carboxamide]
therapeutic value [5]: little therapeutic value as a single agent
PYR concentration ([6]; 1 h): 0 ng/mL
PYR concentration ([6]; 4 h): 0 ng/mL
OMP concentration ([6]; Cells, 1 hr): 0 ng/mL
Orotate concentration ([6]; Cells, 1 hr): 339 ng/mL
UMP concentration ([6]; Cells, 1 hr): 552 ng/mL
OMP concentration ([6]; Cells, 4 hr): 10 ng/mL
Orotate concentration ([6]; Cells, 4 hr): 1170 ng/mL
UMP concentration ([6]; Cells, 4 hr): 408 ng/mL
OMP concentration ([6]; Cells, 24 hr): 11 ng/mL
Orotate concentration ([6]; Cells, 24 hr): 1220 ng/mL
UMP concentration ([6]; Cells, 24 hr): 326 ng/mL
OMP concentration ([6]; Supernatant, 24 hr): 43 ng/mL
Orotate concentration ([6]; Supernatant, 24 hr): 10005 ng/mL
UMP concentration ([6]; Supernatant, 24 hr): 69 ng/mL

CCOC(=O)/C=C/[C@H](C[C@@H]1CCNC1=O)NC(=O)[C@@H](CC(=O)[C@@H](NC(=O)c1cc(C)on1)C(C)C)Cc1ccc(F)cc1 [Rupintrivir]
EC50 [7]: 10.7 nM

CCC(CC)COC(=O)[C@H](C)N[P@](=O)(OC[C@H]1O[C@@](C#N)(c2ccc3c(N)ncnn23)[C@H](O)[C@@H]1O)Oc1ccccc1 [remdesivir]
cytotoxicity of the co-treatment ([3]; remdesivir co-treatment with brequinar): No enhanced cytotoxicity was detected
E(Max) [4]: 100
E(Max) of remdesivir [4]: 95.33 and 96.37 and 95.10
Max Data [4]: 104.7% and 106.8% and 101.9%
Min Data [4]: 75.9% and 78.9% and 69.5%
increase in activity of remdesivir [4]: > 6.8 fold
EC90 ([4]; Severe acute respiratory syndrome coronavirus 2, Vero C1008): 1400 nM
EC50 ([4]; Severe acute respiratory syndrome coronavirus 2, Vero C1008, brequinar 0.000 μM; read-out: EC50 of remdesivir): 801 nM
IC50 ([4]; Severe acute respiratory syndrome coronavirus 2, Vero C1008, brequinar 0.000 μM; read-out: IC50 of remdesivir): 823 nM
EC50 ([4]; Severe acute respiratory syndrome coronavirus 2, Vero C1008, brequinar 0.078 μM; read-out: EC50 of remdesivir): 277 nM
IC50 ([4]; Severe acute respiratory syndrome coronavirus 2, Vero C1008, brequinar 0.078 μM; read-out: IC50 of remdesivir): 292 nM
EC50 ([4]; Severe acute respiratory syndrome coronavirus 2, Vero C1008, brequinar 0.156 μM; read-out: EC50 of remdesivir): 186 nM
IC50 ([4]; Severe acute respiratory syndrome coronavirus 2, Vero C1008, brequinar 0.156 μM; read-out: IC50 of remdesivir): 102 nM
EC50 ([4]; Severe acute respiratory syndrome coronavirus 2, Vero C1008, brequinar 0.313 μM; extrapolated value; read-out: EC50 of remdesivir): 3 nM
IC50 ([4]; Severe acute respiratory syndrome coronavirus 2, Vero C1008, brequinar 0.313 μM; extrapolated value; read-out: IC50 of remdesivir): 3 nM
EC50 ([4]; Severe acute respiratory syndrome coronavirus 2, Vero C1008, brequinar 1.250 μM; read-out: EC50 of remdesivir): < 19.5 nM
IC50 ([4]; Severe acute respiratory syndrome coronavirus 2, Vero C1008, brequinar 1.250 μM; read-out: IC50 of remdesivir): < 19.5 nM
EC50 ([4]; Severe acute respiratory syndrome coronavirus 2, Vero C1008, read-out: EC50 of remdesivir): < 19.5 nM
IC50 ([4]; Severe acute respiratory syndrome coronavirus 2, Vero C1008, read-out: IC50 of remdesivir): < 19.5 nM
IC50 ([4]; Severe acute respiratory syndrome coronavirus 2, Vero C1008, read-out: remdesivir concentration to suppress viral replication to 50%): 100 nM
EC50 ([4]; Severe acute respiratory syndrome coronavirus 2, Vero C1008; read-out: EC50: Concentration inhibiting 50% of the maximum CPE-protection effect of the compound (Emax)): 820 nM
IC50 ([4]; Severe acute respiratory syndrome coronavirus 2, Vero C1008; read-out: IC50: Concentration inhibiting 50% of the virus-induced CPE compared to the no infection control): 820 nM
SI50: Selective Index 50 = CC50/IC50 ([4]; Vero E6): >61
E(Max) of remdesivir ([4]; brequinar 0.000 μM): 92.02
E(Max) of remdesivir ([4]; brequinar 0.078 μM): 97.37
E(Max) of remdesivir ([4]; brequinar 0.156 μM): 122.66
E(Max) of remdesivir ([4]; brequinar 0.313 μM): 97.35
E(Max) of remdesivir ([4]; brequinar 1.250 μM): 100.22
Max Data [4, 9]: 97.1%
Min Data [4, 9]: −11%
Max Data [4, 10]: 94.4%
Min Data [4, 10]: −1.9%
Max Data [4, 11]: 102.6%
Min Data [4, 11]: 22.1%
Max Data [4, 12]: 103.8%
Min Data [4, 12]: 55.4%
Max Data [4, 13]: 105.1%
Min Data [4, 13]: 80.1%
CC50 ([8]; CC50, Vero E6): > 50000 nM
CC50 ([8]; CC50 of remdesivir): > 50000 nM
CC50 ([8]; CC50 of remdesivir, brequinar 0.000 μM): > 25000 nM
CC50 ([8]; CC50 of remdesivir, brequinar 0.078 μM): > 50000 nM
CC50 ([8]; CC50 of remdesivir, brequinar 0.156 μM): > 50000 nM
CC50 ([8]; CC50 of remdesivir, brequinar 0.313 μM): > 50000 nM
CC50 ([8]; CC50 of remdesivir, brequinar 1.250 μM): > 50000 nM

NC(=O)c1ncn([C@@H]2O[C@H](CO)[C@@H](O)[C@H]2O)n1 [ribavirin]
IC50 ([4]; Severe acute respiratory syndrome coronavirus 2, Vero C1008, read-out: IC50: Concentration inhibiting 50% of the virus-induced CPE compared to the no infection control): > 50000 nM
EC90 ([4]; Severe acute respiratory syndrome coronavirus 2, Vero C1008; Vero E6, MOI of 0.05): > 50000 nM
CC50 ([8]; CC50): > 50000 nM
